PMC12076163 (Chemical Science, 2025)

Target: hen egg-white lysozyme (Gallus gallus, UniProt P00698)
Experiment: 1H–[…] HMQC NMR of caged lysozyme with cage-tethered GlcNAc
Type: biochemical

## CC(=O)N[C@H]1C(O)O[C@H](CO)[C@@H](O)[C@@H]1O (stereo partly shown) [GlcNAc, N-acetylglucosamine]
  Kd: 6 µM
